Earlier results in PMC3076957 (Chemico-biological interactions, 2008).

Experiments:
[1] = target: T1, AKR1C3 (Homo sapiens, UniProt P42330); experiment: enzyme inhibition assay; conditions: read-out: IC50 values (μM) / AKR1C3
T1 sequence (P42330 1-323): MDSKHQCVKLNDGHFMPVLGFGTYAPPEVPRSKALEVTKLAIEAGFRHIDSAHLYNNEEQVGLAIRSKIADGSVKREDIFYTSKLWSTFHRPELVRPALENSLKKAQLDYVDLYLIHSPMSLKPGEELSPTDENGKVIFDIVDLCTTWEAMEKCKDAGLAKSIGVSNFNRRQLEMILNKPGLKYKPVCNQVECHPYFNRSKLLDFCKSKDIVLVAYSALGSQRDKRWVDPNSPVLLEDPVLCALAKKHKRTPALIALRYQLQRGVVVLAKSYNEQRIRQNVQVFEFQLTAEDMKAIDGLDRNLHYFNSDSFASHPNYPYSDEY

[2] = target: T1, AKR1C3; experiment: inhibition of androstenedione reduction, Lineweaver-Burk; format: biochemical
[3] = target: T1, AKR1C3; experiment: inhibition of […],10-phenanthrenequinone reduction; format: biochemical; conditions: read-out: IC50 values (μM) / AKR1C3
[4] = target: AKR1C2 (Homo sapiens, UniProt P52895); conditions: read-out: IC50 values (μM) / AKR1C2
AKR1C2, sequence (P52895 whole entry): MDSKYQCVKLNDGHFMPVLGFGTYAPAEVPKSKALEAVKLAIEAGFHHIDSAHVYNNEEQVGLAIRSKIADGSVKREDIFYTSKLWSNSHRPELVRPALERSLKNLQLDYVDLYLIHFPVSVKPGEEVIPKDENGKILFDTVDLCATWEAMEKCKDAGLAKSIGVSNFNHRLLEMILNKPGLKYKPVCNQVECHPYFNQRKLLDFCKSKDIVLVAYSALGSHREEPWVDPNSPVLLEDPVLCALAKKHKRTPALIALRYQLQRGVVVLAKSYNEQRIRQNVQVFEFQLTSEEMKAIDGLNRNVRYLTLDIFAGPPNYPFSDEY

O=C(O)c1ccc(C(=O)c2ccccc2)cc1 [4-Benzoyl-benzoic acid]
Ki [1]: 1.9 µM

O=C(O)c1ccc(Nc2ccc([N+](=O)[O-])cc2[N+](=O)[O-])cc1 [4-Carboxy-2′,4′-dinitrodiphenylamine]
Ki [1]: 0.38 µM

COc1ccc2c(c1)c(CCNC(C)=O)cn2C(=O)c1ccc(Cl)cc1 [CBM, N-(4-chlorobenzoyl)-melatonin]
Ki [2]: 6000 nM

Cc1ccc(Cl)c(Nc2ccccc2C(=O)O)c1Cl [Meclofenamic Acid]
IC50 [3]: 0.7 µM

COc1ccc2cc([C@H](C)C(=O)O)ccc2c1 [Naproxen]
IC50 [4]: 1.2 µM
